Patent publication US7378411B2, “Substituted thienopyrimidinones as a mitotic kinesin inhibitor” (Merck & Co., Inc., priority 2001, dated 2008)

What follows are compounds tested against T1, human KSP motor domain (Homo sapiens, UniProt P52732) (assay: Kinesin ATPase In Vitro Assay). Settings: KSP(367H) motor domain with microtubules, 1 mM ATP, 23° C.; free phosphate by quinaldine red/ammonium molybdate.
T1 construct: were used to amplify the motor domain and the neck linker region; made in house; host or cells: E. coli BL21 (DE3), pRSETa
T1 sequence (P52732 18-359 limits assumed): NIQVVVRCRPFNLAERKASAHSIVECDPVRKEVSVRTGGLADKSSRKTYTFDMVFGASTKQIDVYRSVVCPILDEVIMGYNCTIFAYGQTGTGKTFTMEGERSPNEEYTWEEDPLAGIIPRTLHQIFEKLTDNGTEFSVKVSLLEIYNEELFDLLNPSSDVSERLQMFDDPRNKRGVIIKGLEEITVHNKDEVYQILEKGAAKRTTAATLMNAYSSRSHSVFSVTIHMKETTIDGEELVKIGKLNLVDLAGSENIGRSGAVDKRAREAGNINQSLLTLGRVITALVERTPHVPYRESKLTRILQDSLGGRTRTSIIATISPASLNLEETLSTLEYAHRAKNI
Assay type: biochemical
From the text: I. Kinesin ATPase In Vitro Assay
Cloning and Expression of Human Poly-histidine Tagged KSP Motor Domain (KSP(367H))
Plasmids for the expression of the human KSP motor domain construct were cloned by PCR using a pBluescript full length human KSP construct (Blangy et al., Cell, vol. 83, pp 1159-1169, 1995) as a template. The N-terminal primer 5′-[…] (SEQ.ID.NO.:) and the C-terminal primer 5′-[…] […] (SEQ.ID.NO.:) were used to amplify the motor domain and the neck linker region. The PCR products were digested with AseI and XhoI, ligated into the NdeIl/XhoI digestion product of pRSETa (Invitrogen) and transformed into E. coli BL21 (DE3).
Cells were grown at 37° C. to an OD600 of 0.5. After cooling the culture to room temperature expression of KSP was induced with 100 μM IPTG and incubation was continued overnight. Cells were pelleted by centrifugation and washed once with ice-cold PBS. Pellets were flash-frozen and stored −80° C.
Cell pellets were thawed on ice and resuspended in lysis buffer (50 mM K-HEPES, pH 8.0, 250 mM KCl, 0.1% Tween, 10 mM imidazole, 0.5 mM Mg-ATP, 1 mM PMSF, 2 mM benzimidine, 1× complete protease inhibitor cocktail (Roche)). Cell suspensions were incubated with 1 mg/ml lysozyme and 5 mM β-mercaptoethanol on ice for 10 minutes, followed by sonication (3×30 sec). All subsequent procedures were performed at 4° C. Lysates were centrifuged at 40,000×g for 40 minutes. Supernatants were diluted and loaded onto an SP Sepharose column (Pharmacia, 5 ml cartridge) in buffer A (50 mM K-HEPES, pH 6.8, 1 mM MgCl2, 1 mM EGTA, 10 μM Mg-ATP, 1 mM DTT) and eluted with a 0 to 750 mM KCl gradient in buffer A. Fractions containing KSP were pooled and incubated with Ni-NTA resin (Qiagen) for one hour. The resin was washed three times with buffer B (Lysis buffer minus PMSF and protease inhibitor cocktail), followed by three 15-minute incubations and washes with buffer B. Finally, the resin was incubated and washed for 15 minutes three times with buffer C (same as buffer B except for pH 6.0) and poured into a column. KSP was eluted with elution buffer (identical to buffer B except for 150 mM KCl and 250 mM imidazole). KSP-containing fractions were pooled, made 10% in sucrose, and stored at −80° C.
Microtubules are prepared from tubulin isolated from bovine brain. Purified tubulin (>97% MAP-free) at 1 mg/ml is polymerized at 37° C. in the presence of 10 μM paclitaxel, 1 mM DTT, 1 mM GTP in BRB80 buffer (80 mM K-PIPES, 1 mM EGTA, 1 mM MgCl2 at pH 6.8). The resulting microtubules are separated from non-polymerized tubulin by ultracentrifugation and removal of the supernatant. The pellet, containing the microtubules, is gently resuspended in 10 μM paclitaxel, 1 mM DTT, 50 μg/ml ampicillin, and 5 μg/ml chloramphenicol in BRB80.
The kinesin motor domain is incubated with microtubules, 1 mM ATP (1:1 MgCl2: Na-ATP), and compound at 23° C. in buffer containing 80 mM K-HEPES (pH 7.0), 1 mM EGTA, 1 mM DTT, 1 mM MgCl2, and 50 mM KCl. […] Free phosphate from the ATP hydrolysis reaction is measured via a quinaldine red/ammonium molybdate assay by adding 150 μl of quench C buffer containing a 2:1 ratio of quench A:quench B. Quench A contains 0.1 mg/ml quinaldine red and 0.14% polyvinyl alcohol; quench B contains 12.3 mM ammonium molybdate tetrahydrate in 1.15 M sulfuric acid. The reaction is incubated for 10 minutes at 23° C., and the absorbance of the phospho-molybdate complex is measured at 540 nm.

Row | Structure (SMILES) | IC50 [µM]
1 | CCC(c1nc2sccc2c(=O)n1Cc1ccccc1)N(CCN(C)C)Cc1ccc(Br)cc1 (centres unmarked) [Compound 4-1, 3-benzyl-2-(1-{(4-bromobenzyl)[2-(dimethylamino)ethyl]amino}propyl)thieno[2,3-d]pyrimidin-4(3H)-one] | ≤ 50
2 | CCC(c1nc2sc(Br)c(Br)c2c(=O)n1Cc1ccccc1)N(CCN(C)C)C(=O)c1ccc(Br)cc1 (centres unmarked) [Compound 2-9, N-[1-(3-benzyl-5,6-dibromo-4-oxo-3,4-dihydrothieno[2,3-d]pyrimidin-2-yl)propyl]-4-bromo-N-[2-(dimethylamino)ethyl]benzamide] | ≤ 50
3 | CCC(c1nc2sc(Br)cc2c(=O)n1Cc1ccccc1)N(CCN(C)C)C(=O)c1ccc(Br)cc1 (centres unmarked) [Compound 2-10, N-[1-(3-benzyl-6-bromo-4-oxo-3,4-dihydrothieno[2,3-d]pyrimidin-2-yl)propyl]-4-bromo-N-[2-(dimethylamino)ethyl]benzamide] | ≤ 50

The next lines start with the values.

Row | IC50 [µM] | Structure (SMILES)
4 | ≤ 50 | CCC(c1nc2ccsc2c(=O)n1Cc1ccccc1)N(CCN(C)C)C(=O)c1ccc(Br)cc1 (centres unmarked) [Compound 1-8, N-[1-(3-Benzyl-4-oxo-3,4-dihydrothieno[3,2-d]pyrimidin-2-yl)propyl]-4-bromo-N-[2-(dimethylamino)ethyl]benzamide]
5 | ≤ 50 | CCC(c1nc2sccc2c(=O)n1Cc1ccccc1)N(CCN(C)C)C(=O)c1ccc(Br)cc1 (centres unmarked) [Compound 3-2, N-[1-(3-benzyl-4-oxo-3,4-dihydrothieno[2,3-d]pyrimidin-2-yl)propyl]-4-bromo-N-[2-(dimethylamino)ethyl]benzamide]
